{"source": "paper PMC11358582", "about": "“Discovery of a potential bladder cancer inhibitor CHNQD-01281 by regulating EGFR and promoting infiltration of cytotoxic T cells” (Marine Life Science & Technology, 2024)", "key": {"SGC-7901 cells": {"test_system": "SGC-7901 cells", "experiment": "MTT cell proliferation assay", "format": "cell-based, human", "description": "(§1) Human tumor cell lines Eca-109, BEL-7402, BxPC-3, HCT-116, HT-29, T24, HCT-8, SGC-7901, DLD-1, TE-1, BT-549, MGC-803 and human hepatocyte cell line L-02 were cultured in Roswell Park Memorial Institute (RPMI) 1640. HuH-7 and SW-480 were cultured in Dulbecco’s modified Eagle’s medium (DMEM). J82, HepG2, Hela, U87 were cultured in Minimum Essential Medium (MEM). Murine bladder cancer cell line, MB49, was cultured in DMEM. The above-mentioned culture medium was provided by GIBCO (Grand Island, USA), contained 10% fetal bovine serum (PAN, Germany), 10 mg/mL of streptomycin, and 10 kU/mL penicillin (Beyotime, China).\n(§2) Cells were seeded in 96-well plates and incubated with indicated concentrations of CHNQD-01281 for indicated periods. Next, medium was discarded and MTT (5 mg/mL) was added to each well. The cells were incubated at 37 °C for another 4 h. After that, supernatant was discarded, and DMSO was added and incubated at 37 °C for 15 min. Finally, absorbance was measured at 570 nm (Molecular Devices, USA).\n(§3) To investigate whether CHNQD-01281 had selective inhibitory effect on cancer cell lines, a variety of human tumor cell lines were assayed by MTT, such as bladder cancer cell lines (J82 and T24), colorectal cancer cell lines (HCT-116, HT-29, HCT-8, DLD-1 and SW-480), cervical cancer cell line (Hela), esophageal cancer cell lines (TE-1 and Eca-109), breast cancer cell line (BT-549), gastric carcinoma cell lines (MGC-803 and SGC-7901), glioma cell line (U87), pancreatic carcinoma cell line (BxPC-3) and hepatocellular carcinoma cell lines (Hep G2, BEL-7402 and HuH-7) (Fig. 2A)."}, "Hela cells": {"test_system": "Hela cells", "experiment": "MTT cell proliferation assay", "format": "cell-based, human", "description": "as §1, §2, §3"}, "J82 cells": {"test_system": "J82 cells", "experiment": "MTT cell proliferation assay", "format": "cell-based, human", "description": "as §1, §2, §3"}, "SW-480 cells": {"test_system": "SW-480 cells", "experiment": "MTT cell proliferation assay", "format": "cell-based, human", "description": "as §1, §2, §3"}, "HuH-7 cells": {"test_system": "HuH-7 cells", "experiment": "MTT cell proliferation assay", "format": "cell-based, human", "description": "as §1, §2, §3"}, "HCT-8 cells": {"test_system": "HCT-8 cells", "experiment": "MTT cell proliferation assay", "format": "cell-based, human", "description": "as §1, §2, §3"}, "HT-29 cells": {"test_system": "HT-29 cells", "experiment": "MTT cell proliferation assay", "format": "cell-based, human", "description": "as §1, §2, §3"}, "Eca-109 cells": {"test_system": "Eca-109 cells", "experiment": "MTT cell proliferation assay", "format": "cell-based, human", "description": "as §1, §2, §3"}, "HCT-116 cells": {"test_system": "HCT-116 cells", "experiment": "MTT cell proliferation assay", "format": "cell-based, human", "description": "as §1, §2, §3"}, "Hep G2 cells": {"test_system": "Hep G2 cells", "experiment": "MTT cell proliferation assay", "format": "cell-based, human", "description": "as §1, §2, §3"}, "J82 cell line": {"test_system": "J82 cell line", "experiment": "Cell apoptosis analysis (Annexin V)", "format": "cell-based, human", "details": "J82, 0.32 µmol/L (control 4.15%)", "description": "(§4) T24 and J82 cell lines were seeded in 6-well plates (3 × 10^5 cells/well) and treated with different concentrations of CHNQD-01281 or DMSO. Muse™ Annexin V and Dead Cell assay kit (Muse TM Cell Analyzer, Millipore (catalog no. MCH100105)) was used to determine the cell apoptosis by Muse cell analyzer (Millipore, Billerica, MA, USA).\n(§5) Furthermore, treatment with CHNQD-01281 induced a dose-dependent increase in the total apoptosis of T24 and J82 cell lines. […] Meanwhile, the expression of apoptosis-related proteins cleaved PARP and cleaved caspase-3 were detected by Western blot. […] Therefore, CHNQD-01281 can induce DNA damage to arrest the cell cycle at the G0/G1 phase, affect the expression of DNA damage repair enzyme PARP, and finally induce apoptosis of bladder cancer cell lines."}, "T24 cell line": {"test_system": "T24 cell line", "experiment": "Cell apoptosis analysis (Annexin V)", "format": "cell-based, human", "details": "T24, 0.32 µmol/L (control 3.45%)", "description": "as §4, §5"}, "T24 xenograft": {"test_system": "T24 xenograft", "experiment": "T24 nude mice xenograft model", "format": "in vivo, BALB/c-nu mice", "details": "for reduction of Ki67 expression level (IHC): tumor tissue", "description": "Specific pathogen free (SPF)-grade C57BL/6 mice and BALB/c-nu mice were purchased from Jinan Pengyue Experimental Animal Center (license No. SCXK 20190003). The protocol was approved by the Research Review Committee of the Ocean University of China. All mice were housed in 12-h light and 12-h dark conditions in which the humidity was 50% ± 10% and the temperature was 22 ± 2 °C. All mice had free access to food and water. The human bladder cancer cell line T24 was injected subcutaneously into BALB/c-nu mice to construct a xenograft tumor model. The cell suspension of mouse bladder cancer cell line MB49 was injected into C57BL/6 mice subcutaneously to construct a syngeneic tumor model.\nFixed tissues were embedded in paraffin and then sectioned. The specimens were incubated with antibodies against Ki67, CD3, CD4, CD8 (Servicebio, China) and EGFR (ABclonal, China) at 4 °C overnight. The next day, the slides were washed with 1 × PBST three times for 5 min each and stained with the secondary antibodies and Hoechst 33342 dye (Beyotime, China) for 60 min for IF. For IHC staining, the sections were developed with a rabbit/mouse HRP kits (DAB) (Beyotime, China) according to the manufacturer’s instructions.\nTherefore, xenograft and homologous tumor models were constructed to further evaluate the antitumor effect of CHNQD-01281 in vivo. The mouse bladder cancer xenograft model was established by the subcutaneous inoculation of the T24 cell line, then CHNQD-01281 was intraperitoneally administrated for two consecutive weeks (Fig. 5A)."}}}
{"smiles": "C[C@H]1CCC/C=C/[C@@H]2C[C@H](O)C[C@H]2[C@H](OC(=O)/C=C/c2cccnc2)/C=C/C(=O)O1", "note": "[CHNQD-01281, Brefeldin A 4-O-3-(pyridin-3-yl) acrylate]", "values": [{"measurement": "IC90", "setting": "SGC-7901 cells; Homo sapiens, SGC-7901, MTT", "value": 750, "unit": "nM"}, {"measurement": "IC50", "setting": "SGC-7901 cells; Homo sapiens, SGC-7901, MTT, 72 h", "value": 340, "unit": "nM"}, {"measurement": "SI (selectivity index)", "setting": "SGC-7901 cells; L-02 versus SGC-7901", "value": 3.41}, {"measurement": "IC90", "setting": "Hela cells; Homo sapiens, Hela, MTT", "value": 780, "unit": "nM"}, {"measurement": "IC50", "setting": "Hela cells; Homo sapiens, Hela, MTT, 72 h", "value": 190, "unit": "nM"}, {"measurement": "SI (selectivity index)", "setting": "Hela cells; L-02 versus Hela", "value": 6.11}, {"measurement": "inhibition at 1 µM", "setting": "J82 cells; Homo sapiens, J82, 1 µmol/L (highest concentration), 24 h", "value": "< 50", "unit": "%"}, {"measurement": "IC90", "setting": "J82 cells; Homo sapiens, J82, MTT", "value": 400, "unit": "nM"}, {"measurement": "IC50", "setting": "J82 cells; Homo sapiens, J82, MTT, 72 h", "value": 81, "unit": "nM"}, {"measurement": "SI (selectivity index)", "setting": "J82 cells; L-02 versus J82", "value": 14.32}, {"measurement": "IC90", "setting": "SW-480 cells; Homo sapiens, SW480, SW-480, MTT", "value": "> 1000", "unit": "nM"}, {"measurement": "IC50", "setting": "SW-480 cells; Homo sapiens, SW480, SW-480, MTT, 72 h", "value": 730, "unit": "nM"}, {"measurement": "SI (selectivity index)", "setting": "SW-480 cells; L-02 versus SW-480", "value": 1.59}, {"measurement": "IC90", "setting": "HuH-7 cells; Homo sapiens, HuH-7, MTT", "value": "> 1000", "unit": "nM"}, {"measurement": "IC50", "setting": "HuH-7 cells; Homo sapiens, HuH-7, MTT, 72 h", "value": 510, "unit": "nM"}, {"measurement": "SI (selectivity index)", "setting": "HuH-7 cells; L-02 versus HuH-7", "value": 2.27}, {"measurement": "IC90", "setting": "HCT-8 cells; Homo sapiens, HCT-8, MTT", "value": 440, "unit": "nM"}, {"measurement": "IC50", "setting": "HCT-8 cells; Homo sapiens, HCT-8, MTT, 72 h", "value": 170, "unit": "nM"}, {"measurement": "SI (selectivity index)", "setting": "HCT-8 cells; L-02 versus HCT-8", "value": 6.82}, {"measurement": "IC90", "setting": "HT-29 cells; Homo sapiens, HT-29, MTT", "value": "> 1000", "unit": "nM"}, {"measurement": "IC50", "setting": "HT-29 cells; Homo sapiens, HT-29, MTT, 72 h", "value": 370, "unit": "nM"}, {"measurement": "SI (selectivity index)", "setting": "HT-29 cells; L-02 versus HT-29", "value": 3.14}, {"measurement": "IC90", "setting": "Eca-109 cells; Homo sapiens, Eca-109, MTT", "value": "> 1000", "unit": "nM"}, {"measurement": "IC50", "setting": "Eca-109 cells; Homo sapiens, Eca-109, MTT, 72 h", "value": 540, "unit": "nM"}, {"measurement": "SI (selectivity index)", "setting": "Eca-109 cells; L-02 versus Eca-109", "value": 2.15}, {"measurement": "IC90", "setting": "HCT-116 cells; Homo sapiens, HCT-116, MTT", "value": 640, "unit": "nM"}, {"measurement": "IC50", "setting": "HCT-116 cells; Homo sapiens, HCT-116, MTT, 72 h", "value": 350, "unit": "nM"}, {"measurement": "SI (selectivity index)", "setting": "HCT-116 cells; L-02 versus HCT-116", "value": 3.31}, {"measurement": "IC90", "setting": "Hep G2 cells; Homo sapiens, HepG2, Hep G2, MTT", "value": "> 1000", "unit": "nM"}, {"measurement": "IC50", "setting": "Hep G2 cells; Homo sapiens, HepG2, Hep G2, MTT, 72 h", "value": 420, "unit": "nM"}, {"measurement": "SI (selectivity index)", "setting": "Hep G2 cells; L-02 versus Hep G2", "value": 2.76}, {"measurement": "total apoptotic cells", "setting": "J82 cell line", "value": 27.9, "unit": "%"}, {"measurement": "total apoptotic cells", "setting": "T24 cell line", "value": 27.8, "unit": "%"}, {"measurement": "reduction of Ki67 expression level (IHC)", "setting": "T24 xenograft; 15 mg/kg, versus control", "value": 38.32, "unit": "%"}, {"measurement": "expression of EGFR in tumor (IHC)", "setting": "T24 xenograft; 30 mg/kg", "value": "significantly down-regulated expression of EGFR"}, {"measurement": "tumor growth inhibition rate (TGI %)", "setting": "T24 xenograft; 30 mg/kg, i.p., QD, two weeks, tumor volume", "value": 52.63, "unit": "%"}, {"measurement": "reduction of Ki67 expression level (IHC)", "setting": "T24 xenograft; 30 mg/kg, versus control", "value": 66.47, "unit": "%"}, {"measurement": "reduction of tumor weight", "setting": "T24 xenograft; 30 mg/kg, versus control", "value": 48.57, "unit": "%"}]}
